Experimental data from PubChem BioAssay (NCI).
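Where inhibition never reached the appropriate level, the endpoint shown equals the highest concentration tested. Otherwise, values were interpolated linearly from a five-concentration, 48-hour dose response in 96-well plates. At the GI50, growth is halved. TGI denotes the concentration required for complete inhibition of growth.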

How the values were obtained:
Assay in all cases: NCI anticancer screen, dose series, 48 h
MCF7 breast = test system: MCF7 breast
SF-539 CNS = test system: SF-539 CNS
SNB-19 CNS = test system: SNB-19 CNS
EKVX NSCLC = test system: EKVX NSCLC
OVCAR-3 ovarian = test system: OVCAR-3 ovarian
SK-MEL-5 melanoma = test system: SK-MEL-5 melanoma
LOX IMVI melanoma = test system: LOX IMVI melanoma
SR leukemia = test system: SR leukemia
UACC-257 melanoma = test system: UACC-257 melanoma
K-562 leukemia = test system: K-562 leukemia

CCOC(=O)c1sc2nc(SC)nc(Nc3ccc4c(c3)OCCO4)c2c1N
TGI (MCF7 breast): 23.6 µM | TGI (SF-539 CNS): 18.2 µM | TGI (SNB-19 CNS): > 100 µM | TGI (EKVX NSCLC): 26.6 µM | TGI (OVCAR-3 ovarian): 26.7 µM | TGI (SK-MEL-5 melanoma): 26.7 µM | TGI (LOX IMVI melanoma): > 100 µM | TGI (SR leukemia): > 100 µM | TGI (UACC-257 melanoma): > 100 µM | TGI (K-562 leukemia): > 100 µM

COc1ccc2c(c1)c(-c1nc(-c3c[nH]c4ncccc34)cs1)cn2CCCCN1CCCCC1
GI50 (OVCAR-3 ovarian): 1.76 µM | TGI (OVCAR-3 ovarian): 3.24 µM | GI50 (UACC-257 melanoma): 1.8 µM | TGI (UACC-257 melanoma): 3.35 µM | GI50 (K-562 leukemia): 1.61 µM | TGI (K-562 leukemia): 3.49 µM

Nc1nc(SCc2ccccc2Cl)c2[nH]cnc2n1
TGI (SF-539 CNS): > 100 µM | TGI (SNB-19 CNS): > 100 µM | TGI (EKVX NSCLC): > 100 µM | TGI (OVCAR-3 ovarian): > 100 µM | TGI (SK-MEL-5 melanoma): > 100 µM | TGI (LOX IMVI melanoma): > 100 µM | TGI (SR leukemia): > 100 µM | TGI (UACC-257 melanoma): > 100 µM | TGI (K-562 leukemia): > 100 µM

CNC(C)C(O)c1ccc2oc3cc(=O)c4ccccc4c-3nc2c1 (stereo not given)
TGI (MCF7 breast): 41.7 µM | TGI (SF-539 CNS): 5.99 µM | TGI (SNB-19 CNS): > 100 µM | TGI (EKVX NSCLC): > 100 µM | TGI (OVCAR-3 ovarian): 28.7 µM | TGI (SK-MEL-5 melanoma): 6.68 µM | TGI (LOX IMVI melanoma): 26.7 µM | TGI (UACC-257 melanoma): 33.4 µM | TGI (K-562 leukemia): > 100 µM

COc1ccc(C2COc3c(ccc(O)c3C)C2)cc1OC (stereo not given)
TGI (MCF7 breast): > 200 µM | TGI (SF-539 CNS): 197 µM | TGI (SNB-19 CNS): > 200 µM | TGI (EKVX NSCLC): > 200 µM | TGI (OVCAR-3 ovarian): > 195 µM | TGI (SK-MEL-5 melanoma): 24.6 µM | TGI (LOX IMVI melanoma): 128 µM | TGI (UACC-257 melanoma): > 200 µM | TGI (K-562 leukemia): > 200 µM

CCCn1cnc2c(SCc3ccc(Cl)cc3)nc(N)nc21
TGI (MCF7 breast): > 100 µM | TGI (SNB-19 CNS): > 100 µM | TGI (EKVX NSCLC): 43.5 µM | TGI (OVCAR-3 ovarian): 41.3 µM | TGI (SK-MEL-5 melanoma): 33.4 µM | TGI (LOX IMVI melanoma): 50.8 µM | TGI (SR leukemia): 34.8 µM | TGI (UACC-257 melanoma): 41.8 µM | TGI (K-562 leukemia): 48.2 µM

C=CCCC1(C)CCCNC1=S (stereo not given)
TGI (SF-539 CNS): > 100 µM | TGI (SNB-19 CNS): > 100 µM | TGI (EKVX NSCLC): > 100 µM | TGI (OVCAR-3 ovarian): > 100 µM | TGI (SK-MEL-5 melanoma): > 100 µM | TGI (LOX IMVI melanoma): > 100 µM | TGI (SR leukemia): > 100 µM | TGI (UACC-257 melanoma): > 100 µM | TGI (K-562 leukemia): > 100 µM

CN(C)CCNC(=O)c1cccc2[nH]c(-c3ccccn3)nc12
TGI (MCF7 breast): > 100 µM | TGI (SF-539 CNS): > 100 µM | TGI (SNB-19 CNS): > 100 µM | TGI (EKVX NSCLC): > 100 µM | TGI (OVCAR-3 ovarian): > 100 µM | TGI (SK-MEL-5 melanoma): 48.7 µM | TGI (LOX IMVI melanoma): > 90.1 µM | TGI (UACC-257 melanoma): > 93.6 µM | TGI (K-562 leukemia): > 100 µM

Cc1nc2ccc(S(=O)(=O)Nc3nccs3)cc2c(=O)n1NS(=O)(=O)c1nccs1
TGI (MCF7 breast): > 100 µM | TGI (SF-539 CNS): > 100 µM | TGI (SNB-19 CNS): > 100 µM | TGI (EKVX NSCLC): > 100 µM | TGI (OVCAR-3 ovarian): > 100 µM | TGI (SK-MEL-5 melanoma): > 100 µM | TGI (UACC-257 melanoma): > 100 µM | TGI (K-562 leukemia): > 100 µM

COc1ccc(/C=N/n2cnc3c(c2=O)SC(=C(C#N)C#N)N3c2ccccc2)cc1
TGI (SF-539 CNS): > 100 µM | TGI (SNB-19 CNS): > 100 µM | TGI (OVCAR-3 ovarian): > 100 µM | TGI (SK-MEL-5 melanoma): > 100 µM | TGI (SR leukemia): > 100 µM | TGI (UACC-257 melanoma): > 100 µM | TGI (K-562 leukemia): > 100 µM

O=C(N[C@@H](Cc1coc2ccccc12)B(O)O)[C@@H]1C[C@H]2CC[C@@H]1O2
GI50 (MCF7 breast): 3.25 µM | TGI (MCF7 breast): > 100 µM | GI50 (SF-539 CNS): 1.72 µM | TGI (SF-539 CNS): 6.12 µM | GI50 (SNB-19 CNS): 4.98 µM | TGI (SNB-19 CNS): > 100 µM | GI50 (EKVX NSCLC): 22.7 µM | TGI (EKVX NSCLC): > 100 µM | GI50 (OVCAR-3 ovarian): 4.04 µM | TGI (OVCAR-3 ovarian): > 100 µM | GI50 (SK-MEL-5 melanoma): 4.25 µM | TGI (SK-MEL-5 melanoma): 35.3 µM | GI50 (LOX IMVI melanoma): 5.21 µM | TGI (LOX IMVI melanoma): 34.5 µM | GI50 (SR leukemia): 1.26 µM | TGI (SR leukemia): > 100 µM | GI50 (UACC-257 melanoma): 6.28 µM | TGI (UACC-257 melanoma): > 100 µM | GI50 (K-562 leukemia): 9.99 µM | TGI (K-562 leukemia): > 100 µM
